In assay [1] the test system is NHEK cells. The assay can be described thus: Population doublings and telomere loss per population doubling of drug-treated NHEK's (qPCR). The format is cell-based, human. Particulars: passage 10 and 11 NHEK's, versus DMSO control, FIG. 8b. A general note: Quantitative PCR measures a nucleic acid by following its amplification.
Method: Sub-confluent passage 2 NHEK's in T75 flasks were cultured in complete KSFM maintained at 5% CO2, 37° C. until ˜80% confluent as described in 1.5. These were subsequently passaged and accurate cell counts determined by Via-1 cassette NC3000 Image Cell Cytometer. An aliquot of 40,000 cells was then seeded into T25 flasks which were incubated for 24 hours in KKSFM at 5% CO2, 37° C. to allow cells to adhere. […] These cultures were then incubated for another 3 days at 5% CO2, 37° C. when confluency was approx 80%. At this point, cells were harvested, Via-1 counts carried out, 50,000 cells pelleted for DNA preparation (DNeasy® Blood & Tissue Kit, Qiagen UK, Cat No 69505) and 40,000 cells seeded into a fresh T-25 flask for each specific drug treatment. The whole procedure was then repeated 8 times until passage 11. Extracted DNA quality and quantity was determined with a QuickDrop DNA Spectrophotometer (Molecular Devices. Model 504 7178) and then this was used to analyse comparative telomere length in each sample by use of a Relative Human Telomerase Length Quantification qPCR Assay Kit (ScienCell™, Cat No 8908) with a Stratagen qPCR/Real Time PCR Machine. Model Mx3005P®. […] Analysis of relative telomere length was carried out on DNA extracted from passages 3-10 in triplicate using a qPCR Assay Kit (ScienCell™, Cat No 8908), according to the manufacturer's instructions.
A short description of assay [2]: Canine case studies: biological age by breed-specific telomere length (DNA-My-Dog). The class given is in vivo. The conditions noted are these: for reduction in biological age: versus chronological age. Here is the method:
In 2017, a […] (D.O.B Jan. 5, 2008) female Lhasa Apso/Jack Russell/Shih Tzu cross-breed (confirmed by genetic breed analysis: DNA-My-Dog) with a body mass of 9 Kg, was treated with 0.6 gm/day of 22.2% Fenbendazole (Panacur® granules) which was given orally for 3 consecutive days/week for 1 month and this cycle was repeated every 3rd month giving 4 cycles/annum providing a total of 16×1 month treatment cycles spread over a period of 4 yrs up to the present day.
Subject C2A's chronological age was verified by microchip implantation date using the Petlog database and, in March 2022, a cheek epithelium swab was sent to DNA-My-Dog for genetic assessment of breed composition and biological age by analysis of breed-specific telomere length. The results, returned on the 30 Mar. 2022, reported a biological age of 3 yrs old. Three more treatment cycles were subsequently administered and a repeat biological age telomere test carried out on the 30 Sep. 2022 which also returned a biological age of 3 yrs old. […] Translating these findings to humans, a 14 yr old Lhasa Apso has an equivalent human age of about 72 whereas a 3 yr old has an equivalent human age of about 28. This indicates a potential reduction in human age of 44 yrs which would equate to a 61% reduction of biological age in humans.
In 2017, a 4 yr old Jack Russell/Poodle/Maltese cross-breed (Confirmed by genetic breed analysis: DNA-My-Dog) with a body mass of 9.2 Kg was treated with 1.0 gm/day of 22.2% Fenbendazole Panacur® granules for 3 days per week and 4 days without. The dosing schedule of 3 days with, 4 days without treatment per week was continued for 3 months after which the dose was reduced to 0.6 gm/day of Panacur® and treatment alternated between 1 month with and 1 month without for 19 months providing a total of 11×1 month treatment cycles over the whole time period. After this, treatment was discontinued for 2 years and 5 months up to 12 May 2022 when a cheek swab was taken for analysis of biological age and this was repeated 5 months later on the 30 Sep. 2022.
The initial reason for treating this animal was that it had been diagnosed with an anal sac adenocarcinoma and, at the time, it was decided to explore the use of Fenbendazole as an alternative treatment. […] Subject C2B's birth date was May 2014 giving a chronological age of 8 yrs which was verified by microchip implantation date using the Petlog database. Following the outlined treatment with Fenbendazole, in April 2022, a cheek epithelium swab was sent to DNA-My-Dog for assessment of breed composition and biological age by analysis of breed-specific telomere length. The result, returned on the 12 May 2022, reported a biological age of 1 yr old indicating a reduction in biological age of 7 yrs. which is equivalent to ˜90% reduction in biological age. […] After a further gap of 5 months without treatment, on the 30 Sep. […] However, unlike subject C2A, no treatment was given during this period so the most likely explanation is that the efficacy time-limit of the initial treatment has been exceeded.

The nature of assay [3]: Rat 4 month medicated feed study: mortality and appetite. The format is in vivo, Sprague-Dawley rats. The source says:
Seventy-eight Sprague-Dawley rats aged either 16 or 22 months were maintained with daily 12-hour light/dark cycles and allowed constant access to feed and water. The animals were bred and housed at the Cantacuzino National Medico-Military Institute for Research and Development, Bucharest 050096, Romania. These animals were split into 3 separate groups of 26, each containing the same number of younger and older animals, which were then given the following feeds prepared by Altromin Spezialfutter GmbH & Co. for a period of 4 months: • (A) Control maintenance feed plus standard multivitamin supplement (No API's) • (B) Formulation (A) plus 80 mg/Kilo of Fenbendazole. • (C) Formulation (B) plus 12.5 mg/Kilo Tadalafil. A buccal swab was then taken from each animal using an OracollectDNA OCR-100 sampling device (DNA Genotek, Canada). DNA was extracted using a DNeasy® Blood & Tissue Kit (Qiagen UK, Cat No 69505) which was checked for purity and quantified with a QuickDrop Spectrophotometer (Molecular Devices, Model 504 7178). This material was then used to analyse relative telomere length as described in section 1.6 except that the Relative Rat Telomere Length Quantification qPCR Assay Kit (ScienCell Research Labs, Catalog No. R8908) was used. Five consecutive samples from each of the three treatment groups were analysed on each 96 well PCR plate to minimize any inter-plate variability.

Assay [4] is described as follows: Rat 4 month medicated feed study: relative telomere length in buccal swab DNA (qPCR). Particulars: buccal swabs after 4 months feed; control 1.37 (SD=0.38). The format is in vivo, Sprague-Dawley rats. The source says: Seventy-eight Sprague-Dawley rats aged either 16 or 22 months were maintained with daily 12-hour light/dark cycles and allowed constant access to feed and water. The animals were bred and housed at the Cantacuzino National Medico-Military Institute for Research and Development, Bucharest 050096, Romania. […] A buccal swab was then taken from each animal using an OracollectDNA OCR-100 sampling device (DNA Genotek, Canada). DNA was extracted using a DNeasy® Blood & Tissue Kit (Qiagen UK, Cat No 69505) which was checked for purity and quantified with a QuickDrop Spectrophotometer (Molecular Devices, Model 504 7178). […] R8908) was used. Five consecutive samples from each of the three treatment groups were analysed on each 96 well PCR plate to minimize any inter-plate variability.

Assay [5] concerns post-confluent NHEK cells. The assay can be described thus: Growth of re-cultured post-confluent (cell-cell contact growth arrested) NHEK's. The format is cell-based, human.
Where [6] appears, read: dog C2A findings translated to equivalent human age.

The source of these data is US20250352518A1, “A BENZIMIDAZOLE COMPOUND WITH ANTIHELMINTHIC ACTIVITY FOR USE IN REVERSING, ARRESTING OR SLOWING DOWN CELLULAR AGEING IN A VERTEBRATE SUBJECT” (RAVAN BIO LIMITED, priority 2022, published 2025).

As usually defined, the mortality is the percentage killed. Higher therefore signals a strong lethal effect. `COC(=O)Nc1nc2ccc(Sc3ccccc3)cc2[nH]1` [Fenbendazole, methyl 5-(phenylthio)-2-benzimidazole carbamate]: the “relative telomere loss per population doubling” value in assay [1] was “greatest reduction”. Besides, in assay [2] (setting [6]), the “potential reduction in human age” value is recorded as 44 yrs. The “reduction of biological age in humans” value in assay [2] (setting [6]) came out at 61%. Besides, the “biological age (repeat test)” value worked out at 3 yrs in assay [2] (dog C2A, 30 Sep. 2022, after three more treatment cycles) and 3 yrs in assay [2] (dog C2B, 30 Sep. 2022, further 5 months without treatment). Moreover, the biological age worked out at 3 yrs in assay [2] (dog C2A, chronological age 14 yrs, result 30 Mar. 2022, 0.6 gm/day Panacur granules 3 days/week, 1 month cycles over 4 yrs) and 1 yr in assay [2] (dog C2B, chronological age 8 yrs, result 12 May 2022, 19 months treatment then 2 yrs 5 months without). For the same compound, the “reduction in biological age” value in assay [2] (dog C2A) is 11 yrs; in assay [2] (dog C2A, over 4 years) it was roughly 80%. Further, in assay [3] (4 months medicated feed), the appetite versus control result was “greater”. In addition, the surviving animals in assay [3] (after 4 months of medicated feed, groups of 26 rats aged 16 or 22 months, control 18) was determined as 23. Moreover, the mortality in assay [3] (after 4 months of medicated feed, control 30.7%) came out at 11.5%. Further, the “average telomere length, times that in DNA from a 30 month old comparator” value in assay [4] is 1.59 (SD=0.48). The “number of viable cells (Via-1 Assay) following withdrawal of drug” value in assay [5] (treatment P3-P5 only, withdrawn following passage 6, 5 days, FIG. 5) was 9.7×10^4 cells/ml. Moreover, the “number of viable cells (Via-1 Assay)” value in assay [5] (treatment continued for passages P3-P6, 5 days after passage 6, FIG. 5) is reported as 9.5×10^4 cells/ml.
